Key:
Assay in all cases: Kinase profiling
Format in all cases: biochemical
Details in all cases: 0.1 or 1 μM inhibitor; mean of triplicate
[1] = target: IR (Homo sapiens, UniProt P06213)
Outline: (§1)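 In this specificity profiling, inhibitors at 0.1 or 1 μM were run against 140 protein kinases in vitro. Activity is reported relative to DMSO-treated controls as mean ±S.D. of three reactions.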

[2] = target: CK1δ (Homo sapiens, UniProt P48730)
Outline: as §1

[3] = target: TTK (Homo sapiens, UniProt P33981)
Sequence of TTK (P33981 whole entry): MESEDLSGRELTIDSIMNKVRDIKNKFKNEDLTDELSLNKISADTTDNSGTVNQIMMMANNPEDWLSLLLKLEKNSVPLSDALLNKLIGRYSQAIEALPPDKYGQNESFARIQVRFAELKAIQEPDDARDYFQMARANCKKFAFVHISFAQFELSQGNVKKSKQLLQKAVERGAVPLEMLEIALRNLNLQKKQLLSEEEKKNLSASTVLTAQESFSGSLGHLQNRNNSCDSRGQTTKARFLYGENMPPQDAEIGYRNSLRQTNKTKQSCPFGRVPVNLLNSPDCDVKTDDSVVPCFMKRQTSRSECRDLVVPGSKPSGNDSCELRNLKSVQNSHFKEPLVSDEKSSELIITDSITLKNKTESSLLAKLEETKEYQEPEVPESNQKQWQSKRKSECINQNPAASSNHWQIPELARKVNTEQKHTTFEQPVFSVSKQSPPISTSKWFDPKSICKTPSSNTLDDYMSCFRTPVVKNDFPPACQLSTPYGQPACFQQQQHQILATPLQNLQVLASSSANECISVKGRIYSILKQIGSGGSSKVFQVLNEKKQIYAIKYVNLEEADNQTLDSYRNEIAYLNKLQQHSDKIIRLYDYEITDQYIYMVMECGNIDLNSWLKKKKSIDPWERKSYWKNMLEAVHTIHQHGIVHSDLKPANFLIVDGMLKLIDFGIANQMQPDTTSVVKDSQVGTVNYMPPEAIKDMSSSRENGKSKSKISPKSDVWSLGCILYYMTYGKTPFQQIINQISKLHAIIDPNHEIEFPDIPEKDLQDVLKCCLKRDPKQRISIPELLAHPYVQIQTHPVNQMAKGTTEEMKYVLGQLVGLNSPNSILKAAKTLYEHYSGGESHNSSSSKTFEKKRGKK
Outline: as §1

[4] = target: p38γ MAPK (Homo sapiens, UniProt P53778)
[5] = target: DDR2 (Homo sapiens, UniProt Q16832)
Sequence of DDR2 (Q16832 22-855): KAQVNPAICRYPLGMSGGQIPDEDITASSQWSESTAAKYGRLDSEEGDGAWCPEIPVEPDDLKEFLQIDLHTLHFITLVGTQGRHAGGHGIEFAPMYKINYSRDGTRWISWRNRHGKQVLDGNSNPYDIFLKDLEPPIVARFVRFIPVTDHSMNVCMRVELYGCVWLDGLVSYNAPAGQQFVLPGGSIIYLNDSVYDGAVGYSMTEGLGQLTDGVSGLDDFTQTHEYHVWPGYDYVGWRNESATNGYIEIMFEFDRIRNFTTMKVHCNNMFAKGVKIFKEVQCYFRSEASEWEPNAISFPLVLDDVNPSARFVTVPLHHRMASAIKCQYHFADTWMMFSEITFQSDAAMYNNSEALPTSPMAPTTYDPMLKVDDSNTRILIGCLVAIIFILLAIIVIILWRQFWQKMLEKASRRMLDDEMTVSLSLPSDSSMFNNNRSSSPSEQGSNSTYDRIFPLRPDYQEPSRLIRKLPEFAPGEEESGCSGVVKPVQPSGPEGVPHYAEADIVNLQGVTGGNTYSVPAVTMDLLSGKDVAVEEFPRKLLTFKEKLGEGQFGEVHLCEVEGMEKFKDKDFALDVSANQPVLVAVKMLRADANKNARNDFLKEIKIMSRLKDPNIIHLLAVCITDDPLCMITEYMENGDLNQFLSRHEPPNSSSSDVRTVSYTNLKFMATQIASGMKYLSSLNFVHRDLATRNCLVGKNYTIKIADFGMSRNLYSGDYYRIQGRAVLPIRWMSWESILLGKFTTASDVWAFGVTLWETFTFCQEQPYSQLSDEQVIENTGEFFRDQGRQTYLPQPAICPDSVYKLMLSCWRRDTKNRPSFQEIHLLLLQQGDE
Outline: as §1

[6] = target: IRAK1 (Homo sapiens, UniProt P51617)
Outline: as §1

[7] = target: MELK (Homo sapiens, UniProt Q14680)
Outline: as §1

[8] = target: OSR1 (Homo sapiens, UniProt O95747)
Outline: as §1

[9] = target: CAMK1 (Homo sapiens, UniProt Q14012)
Outline: as §1

[10] = target: MARK2 (Homo sapiens, UniProt Q7KZI7)
Outline: as §1

[11] = target: MNK2 (Homo sapiens, UniProt Q9HBH9)
Sequence of MNK2 (Q9HBH9 whole entry): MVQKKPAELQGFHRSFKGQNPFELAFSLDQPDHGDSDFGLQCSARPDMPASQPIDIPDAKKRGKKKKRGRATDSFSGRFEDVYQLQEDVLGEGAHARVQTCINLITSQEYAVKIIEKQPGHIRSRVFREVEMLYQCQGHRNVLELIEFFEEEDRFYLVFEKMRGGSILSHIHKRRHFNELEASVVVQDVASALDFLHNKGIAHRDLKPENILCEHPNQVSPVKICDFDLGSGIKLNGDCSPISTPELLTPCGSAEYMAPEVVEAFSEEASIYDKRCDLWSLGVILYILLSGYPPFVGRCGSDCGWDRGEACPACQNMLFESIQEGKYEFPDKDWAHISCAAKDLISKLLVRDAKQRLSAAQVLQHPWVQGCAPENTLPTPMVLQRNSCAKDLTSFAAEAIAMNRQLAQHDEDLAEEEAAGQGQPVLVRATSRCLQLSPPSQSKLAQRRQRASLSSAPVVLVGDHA
Outline: as §1

[12] = target: JNK1 (Homo sapiens, UniProt P45983)
[13] = target: p38δ MAPK (Homo sapiens, UniProt O15264)
Outline: as §1

[14] = target: JNK3 (Homo sapiens, UniProt P53779)
Outline: as §1

[15] = target: MAPKAP-K2 (Homo sapiens, UniProt P49137)
Outline: as §1

[16] = target: ERK5 (Homo sapiens, UniProt Q13164)
Sequence of ERK5 (Q13164 whole entry): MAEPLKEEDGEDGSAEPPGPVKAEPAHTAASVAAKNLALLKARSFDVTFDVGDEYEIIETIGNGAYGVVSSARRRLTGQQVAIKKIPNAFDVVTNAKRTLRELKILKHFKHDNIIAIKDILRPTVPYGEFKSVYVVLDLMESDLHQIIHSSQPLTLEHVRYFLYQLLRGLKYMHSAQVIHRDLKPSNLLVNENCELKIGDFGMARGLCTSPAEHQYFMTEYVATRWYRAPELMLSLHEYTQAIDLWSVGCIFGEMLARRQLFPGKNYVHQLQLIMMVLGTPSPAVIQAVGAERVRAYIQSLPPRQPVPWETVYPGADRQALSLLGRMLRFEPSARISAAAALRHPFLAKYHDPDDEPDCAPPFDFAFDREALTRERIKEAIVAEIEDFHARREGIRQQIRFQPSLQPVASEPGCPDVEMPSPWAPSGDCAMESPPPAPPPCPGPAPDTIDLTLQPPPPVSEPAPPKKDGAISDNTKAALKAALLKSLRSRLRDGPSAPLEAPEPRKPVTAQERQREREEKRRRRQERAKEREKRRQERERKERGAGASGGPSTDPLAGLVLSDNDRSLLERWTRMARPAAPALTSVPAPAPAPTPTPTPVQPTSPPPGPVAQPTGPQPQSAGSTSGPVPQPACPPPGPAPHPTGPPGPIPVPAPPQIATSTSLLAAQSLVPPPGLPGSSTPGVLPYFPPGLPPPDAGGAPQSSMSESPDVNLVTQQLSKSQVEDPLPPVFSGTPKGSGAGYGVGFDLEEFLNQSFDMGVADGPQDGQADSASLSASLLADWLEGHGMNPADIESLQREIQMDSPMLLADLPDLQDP
Outline: as §1

[17] = target: WNK1 (Homo sapiens, UniProt Q9H4A3)
Outline: as §1

[18] = target: IKKβ (Homo sapiens, UniProt O14920)
Outline: as §1

[19] = target: EF2K (Homo sapiens, UniProt O00418)
[20] = target: HIPK2 (Homo sapiens, UniProt Q9H2X6)
Outline: as §1

[21] = target: BRSK2 (Homo sapiens, UniProt Q8IWQ3)
Sequence of BRSK2 (Q8IWQ3 whole entry): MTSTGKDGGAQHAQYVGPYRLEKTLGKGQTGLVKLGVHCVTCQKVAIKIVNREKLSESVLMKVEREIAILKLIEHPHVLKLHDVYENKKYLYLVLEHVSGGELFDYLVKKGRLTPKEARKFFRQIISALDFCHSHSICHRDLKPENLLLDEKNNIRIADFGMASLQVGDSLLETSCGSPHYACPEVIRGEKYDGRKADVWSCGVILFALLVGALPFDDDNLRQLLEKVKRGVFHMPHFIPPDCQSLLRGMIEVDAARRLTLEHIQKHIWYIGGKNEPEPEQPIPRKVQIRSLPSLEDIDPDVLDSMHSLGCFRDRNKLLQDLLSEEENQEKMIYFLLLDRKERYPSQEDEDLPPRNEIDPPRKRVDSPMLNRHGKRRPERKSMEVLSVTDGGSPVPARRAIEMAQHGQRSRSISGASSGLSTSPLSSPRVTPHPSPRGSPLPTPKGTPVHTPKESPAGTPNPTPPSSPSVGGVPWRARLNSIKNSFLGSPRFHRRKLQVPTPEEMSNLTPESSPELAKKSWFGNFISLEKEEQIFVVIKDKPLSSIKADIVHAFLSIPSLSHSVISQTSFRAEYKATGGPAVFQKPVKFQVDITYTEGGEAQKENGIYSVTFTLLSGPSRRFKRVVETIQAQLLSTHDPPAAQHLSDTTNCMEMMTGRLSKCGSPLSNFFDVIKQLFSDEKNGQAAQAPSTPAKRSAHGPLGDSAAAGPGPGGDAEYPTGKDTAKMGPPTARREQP
Outline: as §1

[22] = target: EPH-B4 (Homo sapiens, UniProt P54760)
[23] = target: TSSK1 (Homo sapiens, UniProt Q9BXA7)
[24] = target: SRPK1 (Homo sapiens, UniProt Q96SB4)
Outline: as §1

[25] = target: RSK1 (Homo sapiens, UniProt Q15418)
Outline: as §1

[26] = target: HER4 (Homo sapiens, UniProt Q15303)
Outline: as §1

[27] = target: MST3 (Homo sapiens, UniProt Q9Y6E0)
[28] = target: Lck (Homo sapiens, UniProt P06239)
Outline: as §1

[29] = target: EPH-A4 (Homo sapiens, UniProt P54764)
Outline: as §1

[30] = target: CDK9-Cyc T1 (Homo sapiens, UniProt P50750)
[31] = target: ERK1 (Homo sapiens, UniProt P27361)
Outline: as §1

[32] = target: DYRK3 (Homo sapiens, UniProt O43781)
Sequence of DYRK3 (O43781 whole entry): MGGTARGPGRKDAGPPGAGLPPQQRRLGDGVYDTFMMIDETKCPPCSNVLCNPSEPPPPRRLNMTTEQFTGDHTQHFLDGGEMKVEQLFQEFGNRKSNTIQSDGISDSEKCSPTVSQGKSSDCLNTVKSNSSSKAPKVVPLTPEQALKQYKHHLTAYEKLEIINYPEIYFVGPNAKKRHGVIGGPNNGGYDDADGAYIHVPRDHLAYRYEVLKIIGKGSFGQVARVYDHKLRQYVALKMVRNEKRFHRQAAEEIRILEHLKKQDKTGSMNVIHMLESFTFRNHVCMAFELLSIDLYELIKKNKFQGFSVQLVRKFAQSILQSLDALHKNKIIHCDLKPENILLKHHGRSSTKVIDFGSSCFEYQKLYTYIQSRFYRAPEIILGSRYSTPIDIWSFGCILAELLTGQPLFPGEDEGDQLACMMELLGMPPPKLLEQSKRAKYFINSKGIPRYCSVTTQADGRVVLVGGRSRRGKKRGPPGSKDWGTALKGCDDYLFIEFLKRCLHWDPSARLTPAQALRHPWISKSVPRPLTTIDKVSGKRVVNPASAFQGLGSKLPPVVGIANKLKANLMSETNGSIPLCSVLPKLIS
Outline: as §1

[33] = target: PKCα (Homo sapiens, UniProt P17252)
Outline: as §1

[34] = target: SGK1 (Homo sapiens, UniProt O00141)
Outline: as §1

Sequence of CK1δ (P48730 whole entry): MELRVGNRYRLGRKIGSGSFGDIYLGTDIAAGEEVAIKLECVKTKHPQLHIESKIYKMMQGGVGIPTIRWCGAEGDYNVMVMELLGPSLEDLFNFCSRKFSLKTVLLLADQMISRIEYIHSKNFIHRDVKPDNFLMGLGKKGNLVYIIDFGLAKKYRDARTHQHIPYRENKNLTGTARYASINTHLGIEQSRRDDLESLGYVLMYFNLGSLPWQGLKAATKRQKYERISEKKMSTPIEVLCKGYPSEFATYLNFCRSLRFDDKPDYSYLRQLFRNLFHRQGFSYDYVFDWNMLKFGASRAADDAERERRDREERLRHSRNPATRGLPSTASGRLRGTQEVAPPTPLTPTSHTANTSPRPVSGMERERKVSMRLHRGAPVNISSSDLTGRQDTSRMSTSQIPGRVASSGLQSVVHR

Q: Which results are given for `Cc1nc(Nc2cnn(C3CCNCC3)c2)nc2c1N(C)C(=O)c1cc3ccccc3cc1N2C` [HTH-01-015]?
A: IR activity, percentage of DMSO control [1]: 105 percentage; CK1δ activity, percentage of DMSO control [2]: 94 percentage; TTK activity, percentage of DMSO control [3]: 118 percentage; p38γ MAPK activity, percentage of DMSO control [4]: 100 percentage; DDR2 activity, percentage of DMSO control [5]: 91 percentage; IRAK1 activity, percentage of DMSO control [6]: 103 percentage; MELK activity, percentage of DMSO control [7]: 99 percentage; OSR1 activity, percentage of DMSO control [8]: 107 percentage; CAMK1 activity, percentage of DMSO control [9]: 92 percentage; MARK2 activity, percentage of DMSO control [10]: 99 percentage; MNK2 activity, percentage of DMSO control [11]: 106 percentage; JNK1 activity, percentage of DMSO control [12]: 100 percentage; p38δ MAPK activity, percentage of DMSO control [13]: 113 percentage; JNK3 activity, percentage of DMSO control [14]: 101 percentage; MAPKAP-K2 activity, percentage of DMSO control [15]: 118 percentage; ERK5 activity, percentage of DMSO control [16]: 121 percentage; WNK1 activity, percentage of DMSO control [17]: 99 percentage; IKKβ activity, percentage of DMSO control [18]: 81 percentage; EF2K activity, percentage of DMSO control [19]: 103 percentage; HIPK2 activity, percentage of DMSO control [20]: 107 percentage; BRSK2 activity, percentage of DMSO control [21]: 97 percentage; EPH-B4 activity, percentage of DMSO control [22]: 102 percentage; TSSK1 activity, percentage of DMSO control [23]: 95 percentage; SRPK1 activity, percentage of DMSO control [24]: 103 percentage; RSK1 activity, percentage of DMSO control [25]: 93 percentage; HER4 activity, percentage of DMSO control [26]: 102 percentage; MST3 activity, percentage of DMSO control [27]: 111 percentage; Lck activity, percentage of DMSO control [28]: 90 percentage; EPH-A4 activity, percentage of DMSO control [29]: 94 percentage; CDK9-Cyc T1 activity, percentage of DMSO control [30]: 68 percentage; ERK1 activity, percentage of DMSO control [31]: 83 percentage; DYRK3 activity, percentage of DMSO control [32]: 98 percentage; PKCα activity, percentage of DMSO control [33]: 117 percentage; SGK1 activity, percentage of DMSO control [34]: 97 percentage

Source: article PMC3969223, “Characterization of WZ4003 and HTH-01-015 as selective inhibitors of the LKB1-tumour-suppressor-activated NUAK kinases” (Biochemical Journal, 2013)
